Assay results reported in PubChem BioAssay (NCI).
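Growth conditions: 96-well plates. Treatment: test compound, 48 hours, 5 concentrations. Analysis: linear interpolation between bracketing concentrations; unreached endpoints set to highest concentration. Here, GI50 denotes the concentration required for 50% inhibition of growth. At the TGI there is no net growth.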

Tests used:
Test in all cases: NCI-60 cell line screen, 48 h
NCI-H226 lung = test system: NCI-H226 lung
SK-MEL-2 melanoma = test system: SK-MEL-2 melanoma
SW-620 colon = test system: SW-620 colon
OVCAR-3 ovarian = test system: OVCAR-3 ovarian
MCF7 breast = test system: MCF7 breast
EKVX NSCLC = test system: EKVX NSCLC
CAKI-1 renal = test system: CAKI-1 renal
MALME-3M melanoma = test system: MALME-3M melanoma
SF-268 CNS = test system: SF-268 CNS
NCI-H522 lung = test system: NCI-H522 lung
OVCAR-8 ovarian = test system: OVCAR-8 ovarian
CCRF-CEM leukemia = test system: CCRF-CEM leukemia
SF-295 CNS = test system: SF-295 CNS
SNB-75 CNS = test system: SNB-75 CNS
HOP-92 NSCLC = test system: HOP-92 NSCLC
SF-539 CNS = test system: SF-539 CNS
K-562 leukemia = test system: K-562 leukemia
HL-60(TB) leukemia = test system: HL-60(TB) leukemia
RXF 393 renal = test system: RXF 393 renal
786-0 renal = test system: 786-0 renal
IGROV1 ovarian = test system: IGROV1 ovarian
MOLT-4 leukemia = test system: MOLT-4 leukemia
HS 578T breast = test system: HS 578T breast
MDA-MB-435 = test system: MDA-MB-435
HCT-15 colon = test system: HCT-15 colon
OVCAR-5 ovarian = test system: OVCAR-5 ovarian
HCC-2998 colon = test system: HCC-2998 colon
NCI-H23 lung = test system: NCI-H23 lung
M14 melanoma = test system: M14 melanoma
SN12C renal = test system: SN12C renal
KM12 colon = test system: KM12 colon
A549 NSCLC = test system: A549 NSCLC
UACC-62 melanoma = test system: UACC-62 melanoma
T-47D breast = test system: T-47D breast
RPMI-8226 leukemia = test system: RPMI-8226 leukemia
TK-10 renal = test system: TK-10 renal
A498 renal = test system: A498 renal
NCI-H460 lung = test system: NCI-H460 lung
SK-OV-3 ovarian = test system: SK-OV-3 ovarian
PC-3 prostate = test system: PC-3 prostate
HT29 colon = test system: HT29 colon
NCI/ADR-RES ovarian = test system: NCI/ADR-RES ovarian
OVCAR-4 ovarian = test system: OVCAR-4 ovarian
BT-549 breast = test system: BT-549 breast
U251 CNS = test system: U251 CNS
COLO 205 colon = test system: COLO 205 colon
SK-MEL-28 melanoma = test system: SK-MEL-28 melanoma
ACHN renal = test system: ACHN renal
HOP-62 NSCLC = test system: HOP-62 NSCLC
UO-31 renal = test system: UO-31 renal
SNB-19 CNS = test system: SNB-19 CNS
DU-145 prostate = test system: DU-145 prostate

COc1cc2c(cc1OCCCCCN1CCN(c3cc(=O)oc4c(C)c(OC)ccc34)CC1)N=C[C@@H]1CCCN1C2=O
GI50 (NCI-H226 lung): < 10 nM
TGI (NCI-H226 lung): 36.8 nM
GI50 (SK-MEL-2 melanoma): < 10 nM
TGI (SK-MEL-2 melanoma): < 17.5 nM
GI50 (SW-620 colon): < 10.8 nM
TGI (SW-620 colon): 4260 nM
GI50 (OVCAR-3 ovarian): < 10 nM
TGI (OVCAR-3 ovarian): 32.4 nM
GI50 (MCF7 breast): < 10 nM
TGI (MCF7 breast): 3430 nM
GI50 (EKVX NSCLC): 174 nM
TGI (EKVX NSCLC): 4070 nM
GI50 (CAKI-1 renal): 83 nM
TGI (CAKI-1 renal): 537 nM
GI50 (MALME-3M melanoma): 18.2 nM
TGI (MALME-3M melanoma): 53.1 nM
GI50 (SF-268 CNS): < 10 nM
TGI (SF-268 CNS): 318 nM
GI50 (NCI-H522 lung): < 10 nM
TGI (NCI-H522 lung): < 35.2 nM
GI50 (OVCAR-8 ovarian): 18 nM
TGI (OVCAR-8 ovarian): 5150 nM
GI50 (CCRF-CEM leukemia): < 10 nM
TGI (CCRF-CEM leukemia): 106 nM
GI50 (SF-295 CNS): < 13.9 nM
TGI (SF-295 CNS): 2420 nM
GI50 (SNB-75 CNS): < 15.5 nM
TGI (SNB-75 CNS): < 28.1 nM
GI50 (HOP-92 NSCLC): < 10 nM
TGI (HOP-92 NSCLC): < 14.1 nM
GI50 (SF-539 CNS): < 11.2 nM
TGI (SF-539 CNS): 128 nM
GI50 (K-562 leukemia): < 10 nM
TGI (K-562 leukemia): 316 nM
GI50 (HL-60(TB) leukemia): < 10 nM
TGI (HL-60(TB) leukemia): 1200 nM
GI50 (RXF 393 renal): < 10 nM
TGI (RXF 393 renal): < 12.7 nM
GI50 (786-0 renal): < 10 nM
GI50 (IGROV1 ovarian): < 10 nM
TGI (IGROV1 ovarian): 25.1 nM
GI50 (MOLT-4 leukemia): < 10 nM
TGI (MOLT-4 leukemia): 10.6 nM
GI50 (HS 578T breast): < 19.8 nM
TGI (HS 578T breast): 791 nM
GI50 (MDA-MB-435): < 11.2 nM
TGI (MDA-MB-435): 26.2 nM
GI50 (HCT-15 colon): 552 nM
TGI (HCT-15 colon): 4420 nM
GI50 (OVCAR-5 ovarian): < 12.3 nM
TGI (OVCAR-5 ovarian): 851 nM
GI50 (HCC-2998 colon): 11.1 nM
TGI (HCC-2998 colon): 37.2 nM
GI50 (NCI-H23 lung): < 12.2 nM
TGI (NCI-H23 lung): 137 nM
GI50 (M14 melanoma): 10.1 nM
TGI (M14 melanoma): 22.5 nM
GI50 (SN12C renal): < 10 nM
TGI (SN12C renal): 69.9 nM
GI50 (KM12 colon): < 16.9 nM
TGI (KM12 colon): 96.5 nM
GI50 (A549 NSCLC): 21.1 nM
TGI (A549 NSCLC): 15400 nM
GI50 (UACC-62 melanoma): < 10 nM
TGI (UACC-62 melanoma): 14.7 nM
GI50 (T-47D breast): < 17.4 nM
GI50 (RPMI-8226 leukemia): < 10 nM
TGI (RPMI-8226 leukemia): < 11.8 nM
GI50 (TK-10 renal): < 12.9 nM
TGI (TK-10 renal): 13300 nM
GI50 (A498 renal): < 12.7 nM
TGI (A498 renal): 28.9 nM
GI50 (NCI-H460 lung): 19.7 nM
TGI (NCI-H460 lung): 1710 nM
GI50 (SK-OV-3 ovarian): 43.5 nM
TGI (SK-OV-3 ovarian): 12800 nM
GI50 (PC-3 prostate): < 10 nM
TGI (PC-3 prostate): 408 nM
GI50 (HT29 colon): < 10 nM
TGI (HT29 colon): 42.8 nM
GI50 (NCI/ADR-RES ovarian): 1550 nM
TGI (NCI/ADR-RES ovarian): 8250 nM
GI50 (OVCAR-4 ovarian): < 17.8 nM
TGI (OVCAR-4 ovarian): 189 nM
GI50 (BT-549 breast): < 11.9 nM
TGI (BT-549 breast): 155 nM
GI50 (U251 CNS): < 10 nM
TGI (U251 CNS): 585 nM
GI50 (COLO 205 colon): < 10 nM
TGI (COLO 205 colon): 84.9 nM
GI50 (SK-MEL-28 melanoma): < 23.5 nM
TGI (SK-MEL-28 melanoma): 163 nM
GI50 (ACHN renal): 43.4 nM
TGI (ACHN renal): 256 nM
GI50 (HOP-62 NSCLC): < 10.7 nM
TGI (HOP-62 NSCLC): 30.1 nM
GI50 (UO-31 renal): 14 nM
TGI (UO-31 renal): 38.3 nM
GI50 (SNB-19 CNS): < 14.3 nM
TGI (SNB-19 CNS): 8820 nM
GI50 (DU-145 prostate): < 10 nM
TGI (DU-145 prostate): 5360 nM
